Assay results published in article doi:10.1101/2025.11.20.689572v1 (biorxiv, 2025).
pKi: −log10 of the molar value.

Tests used:
DRD1 = DRD1 (Homo sapiens, UniProt P21728); assay: biochemical; design: species or system HEK293; PDSP competitive radioligand binding, membranes of transfected HEK293 cells, filtration, Ki by Cheng-Prusoff; settings: read-out: N-desmethyl-xanomeline (PDSP) pKi (converted)
Method: (§1) Competitive radioligand binding assays were performed at the NIMH Psychoactive Drug Screening Program (PDSP) using membranes from transiently transfected HEK293 cells in 96-well format as described. Complete, target-specific protocols are available at the PDSP website (https://pdsp.unc.edu/pdspweb/?site=assays). Primary screenings were run at a single test concentration (10 µM) in quadruplicate. […] Secondary assays were conducted in triplicate using 12-point serial dilutions (0, 0.1, 0.3, 1, 3, 10, 30, 100, 300 nM; 1, 3, 10 µM). Assays were performed in a final volume of 125 µL per well in binding buffer, as detailed in the NIMH PDSP protocols (e.g., standard binding buffer: 50 mM Tris-HCl, pH 7.4, 10 mM MgCl2, 0.1 mM EDTA). Radioligand concentrations were chosen near the target-specific Kd. Total and nonspecific binding were defined in the absence and presence, respectively, of 10 µM reference ligand specific for each receptor. After 90 min incubation at room temperature, reactions were terminated by vacuum filtration onto 0.3% polyethyleneimine-pretreated UniFilter-96 GF/C Microplates using a FilterMate harvester, washed three times with ice-cold buffer (50 mM Tris HCl, pH 7.4), dried, treated with MicroScint-O [compound left out] scintillation cocktails, and counted on a MicroBeta counter. Equilibrium inhibition constants (Ki) were calculated from fitted IC50 values using the Cheng–Prusoff equation [14] with the assay-specific radioligand concentration and Kd. TABLE 1. […] Results represented mean ± SEM from a minimum of 3 independent assays, each in triplicate. ND=not determined.

5-HT4 = target: T1, 5-HT4 (Homo sapiens, UniProt Q13639); assay: biochemical; design: species or system HEK293; PDSP competitive radioligand binding, membranes of transfected HEK293 cells, filtration, Ki by Cheng-Prusoff; settings: read-out: N-desmethyl-xanomeline (PDSP) pKi (converted)
T1 construct: gene HTR4
T1 sequence (Q13639 whole entry): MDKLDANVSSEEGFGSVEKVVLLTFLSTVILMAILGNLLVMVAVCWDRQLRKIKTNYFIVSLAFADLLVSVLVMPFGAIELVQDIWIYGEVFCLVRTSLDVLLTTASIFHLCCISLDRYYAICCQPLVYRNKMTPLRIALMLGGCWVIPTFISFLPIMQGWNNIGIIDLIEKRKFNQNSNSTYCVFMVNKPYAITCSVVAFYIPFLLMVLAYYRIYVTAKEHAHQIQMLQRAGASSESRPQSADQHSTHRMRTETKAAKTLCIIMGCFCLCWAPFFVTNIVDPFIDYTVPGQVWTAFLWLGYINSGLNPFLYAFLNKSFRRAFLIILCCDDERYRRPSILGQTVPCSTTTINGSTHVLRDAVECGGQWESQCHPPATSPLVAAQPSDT
Method: as §1

CHRM1 = target: T2, CHRM1 (Homo sapiens, UniProt P11229); assay: cell-based; design: species or system HEK293; TRUPATH BRET2 G-protein dissociation; antagonist mode against agonist EC80; settings: HEK293, read-out: N-Desmethyl Xanomeline, Assay=Gq; agonist mode, % of control agonist
T2 sequence (P11229 1-460): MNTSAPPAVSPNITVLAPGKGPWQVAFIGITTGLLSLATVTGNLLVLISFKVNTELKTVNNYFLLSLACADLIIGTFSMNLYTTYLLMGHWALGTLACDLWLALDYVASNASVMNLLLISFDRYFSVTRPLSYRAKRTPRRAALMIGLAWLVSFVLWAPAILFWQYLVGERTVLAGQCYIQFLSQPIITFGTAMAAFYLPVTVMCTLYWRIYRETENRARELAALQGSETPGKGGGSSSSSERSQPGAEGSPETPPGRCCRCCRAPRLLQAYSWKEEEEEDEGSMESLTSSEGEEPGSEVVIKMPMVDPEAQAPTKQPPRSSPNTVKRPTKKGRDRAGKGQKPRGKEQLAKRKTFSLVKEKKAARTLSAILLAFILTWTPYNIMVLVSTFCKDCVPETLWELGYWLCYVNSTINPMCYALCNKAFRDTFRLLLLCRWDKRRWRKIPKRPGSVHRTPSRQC

M1 = target: T3, M1 (Homo sapiens, UniProt P11229); assay: competitive radioligand binding, HEK293 membranes
T3 construct: gene CHRM1; full-length receptor; HEK293 with TRUPATH sensors (function)
T3 sequence (P11229 1-460): T2 sequence (P11229 1-460)

HTR1A = target: T4, HTR1A (Homo sapiens, UniProt P08908); assay: biochemical; design: species or system HEK293; PDSP competitive radioligand binding, membranes of transfected HEK293 cells, filtration, Ki by Cheng-Prusoff
T4 sequence (P08908 1-422): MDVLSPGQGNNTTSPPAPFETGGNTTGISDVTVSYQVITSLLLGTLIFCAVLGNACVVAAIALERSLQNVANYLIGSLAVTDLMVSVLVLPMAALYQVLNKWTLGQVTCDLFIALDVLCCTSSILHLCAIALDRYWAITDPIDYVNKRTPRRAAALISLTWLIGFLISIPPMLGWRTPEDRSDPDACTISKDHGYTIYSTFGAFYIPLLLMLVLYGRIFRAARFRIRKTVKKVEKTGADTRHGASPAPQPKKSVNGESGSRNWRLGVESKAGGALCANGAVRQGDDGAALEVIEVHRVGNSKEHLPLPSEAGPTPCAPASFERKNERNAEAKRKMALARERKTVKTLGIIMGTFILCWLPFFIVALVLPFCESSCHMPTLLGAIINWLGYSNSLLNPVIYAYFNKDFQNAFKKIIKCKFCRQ
Method: as §1

β3 = target: T5, β3 (Homo sapiens, UniProt P13945); assay: biochemical; design: species or system HEK293; PDSP competitive radioligand binding, membranes of transfected HEK293 cells, filtration, Ki by Cheng-Prusoff
T5 construct: gene ADRB3
T5 sequence (P13945 whole entry): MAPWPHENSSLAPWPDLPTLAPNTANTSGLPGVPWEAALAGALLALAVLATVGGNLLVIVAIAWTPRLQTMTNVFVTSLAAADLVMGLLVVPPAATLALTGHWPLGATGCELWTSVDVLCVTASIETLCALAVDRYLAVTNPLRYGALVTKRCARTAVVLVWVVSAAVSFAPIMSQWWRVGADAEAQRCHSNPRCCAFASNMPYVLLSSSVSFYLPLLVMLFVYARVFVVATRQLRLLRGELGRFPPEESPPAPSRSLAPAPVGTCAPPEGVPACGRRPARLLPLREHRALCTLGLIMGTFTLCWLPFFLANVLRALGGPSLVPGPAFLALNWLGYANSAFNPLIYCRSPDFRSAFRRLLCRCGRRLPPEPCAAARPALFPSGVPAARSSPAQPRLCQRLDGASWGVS
Method: as §1

DAT = target: T6, DAT (Homo sapiens, UniProt Q01959); assay: biochemical; design: species or system HEK293; PDSP competitive radioligand binding, membranes of transfected HEK293 cells, filtration, Ki by Cheng-Prusoff
T6 construct: gene SLC6A3
T6 sequence (Q01959 whole entry): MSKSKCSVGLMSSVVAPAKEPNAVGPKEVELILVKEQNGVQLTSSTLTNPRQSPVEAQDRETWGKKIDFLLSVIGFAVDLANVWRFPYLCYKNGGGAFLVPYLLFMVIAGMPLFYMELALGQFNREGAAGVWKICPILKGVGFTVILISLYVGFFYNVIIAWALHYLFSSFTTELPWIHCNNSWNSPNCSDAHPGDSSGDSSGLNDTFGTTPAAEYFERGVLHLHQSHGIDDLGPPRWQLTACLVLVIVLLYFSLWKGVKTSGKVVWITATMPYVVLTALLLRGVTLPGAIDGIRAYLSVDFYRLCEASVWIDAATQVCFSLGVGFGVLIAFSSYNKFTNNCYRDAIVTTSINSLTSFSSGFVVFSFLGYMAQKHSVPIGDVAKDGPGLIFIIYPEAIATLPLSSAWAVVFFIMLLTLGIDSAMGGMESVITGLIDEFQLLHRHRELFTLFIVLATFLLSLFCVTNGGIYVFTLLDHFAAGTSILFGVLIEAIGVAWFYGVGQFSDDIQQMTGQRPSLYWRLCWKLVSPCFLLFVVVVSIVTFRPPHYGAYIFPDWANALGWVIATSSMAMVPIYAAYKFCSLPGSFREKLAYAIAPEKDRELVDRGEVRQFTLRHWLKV
Method: as §1

5-HT6 = target: T7, 5-HT6 (Homo sapiens, UniProt P50406); assay: biochemical; design: species or system HEK293; PDSP competitive radioligand binding, membranes of transfected HEK293 cells, filtration, Ki by Cheng-Prusoff
T7 construct: gene HTR6
T7 sequence (P50406 whole entry): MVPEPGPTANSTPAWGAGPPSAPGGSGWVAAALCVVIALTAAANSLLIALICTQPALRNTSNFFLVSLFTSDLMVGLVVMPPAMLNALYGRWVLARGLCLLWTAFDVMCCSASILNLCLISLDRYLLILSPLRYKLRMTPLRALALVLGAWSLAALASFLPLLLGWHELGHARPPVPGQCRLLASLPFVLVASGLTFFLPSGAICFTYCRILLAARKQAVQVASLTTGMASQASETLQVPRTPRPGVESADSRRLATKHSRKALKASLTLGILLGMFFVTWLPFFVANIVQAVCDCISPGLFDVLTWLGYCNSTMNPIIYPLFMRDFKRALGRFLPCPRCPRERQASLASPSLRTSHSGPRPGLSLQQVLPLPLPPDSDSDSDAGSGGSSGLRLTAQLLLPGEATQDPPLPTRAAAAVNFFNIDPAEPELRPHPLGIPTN
Method: as §1

5-HT1E = target: T8, 5-HT1E (Homo sapiens, UniProt P28566); assay: biochemical; design: species or system HEK293; PDSP competitive radioligand binding, membranes of transfected HEK293 cells, filtration, Ki by Cheng-Prusoff
T8 construct: gene HTR1E
T8 sequence (P28566 whole entry): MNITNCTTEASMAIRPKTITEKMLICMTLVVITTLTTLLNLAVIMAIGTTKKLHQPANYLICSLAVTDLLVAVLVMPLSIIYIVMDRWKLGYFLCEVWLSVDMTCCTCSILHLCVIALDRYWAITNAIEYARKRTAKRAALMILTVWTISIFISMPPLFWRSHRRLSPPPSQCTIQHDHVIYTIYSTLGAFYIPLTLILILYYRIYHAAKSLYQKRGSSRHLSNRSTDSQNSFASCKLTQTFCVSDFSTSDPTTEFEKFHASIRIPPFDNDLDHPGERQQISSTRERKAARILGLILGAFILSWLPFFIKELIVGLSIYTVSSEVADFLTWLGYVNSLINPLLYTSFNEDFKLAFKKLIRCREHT
Method: as §1

HRH4 = HRH4 (Homo sapiens, UniProt Q9H3N8); assay: biochemical; design: species or system HEK293; PDSP competitive radioligand binding, membranes of transfected HEK293 cells, filtration, Ki by Cheng-Prusoff
HRH4, sequence (Q9H3N8 whole entry): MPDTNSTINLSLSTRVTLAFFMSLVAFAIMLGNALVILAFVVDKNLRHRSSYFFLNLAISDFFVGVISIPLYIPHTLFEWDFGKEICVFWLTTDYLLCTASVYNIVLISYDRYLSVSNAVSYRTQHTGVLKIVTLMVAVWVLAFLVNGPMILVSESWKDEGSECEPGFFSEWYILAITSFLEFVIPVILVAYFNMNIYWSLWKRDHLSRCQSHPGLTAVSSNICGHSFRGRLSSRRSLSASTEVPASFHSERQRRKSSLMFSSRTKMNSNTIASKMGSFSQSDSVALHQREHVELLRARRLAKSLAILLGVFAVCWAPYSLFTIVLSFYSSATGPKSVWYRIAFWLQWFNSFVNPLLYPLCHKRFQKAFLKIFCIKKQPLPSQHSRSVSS
Method: as §1

DRD1, sequence (P21728 whole entry): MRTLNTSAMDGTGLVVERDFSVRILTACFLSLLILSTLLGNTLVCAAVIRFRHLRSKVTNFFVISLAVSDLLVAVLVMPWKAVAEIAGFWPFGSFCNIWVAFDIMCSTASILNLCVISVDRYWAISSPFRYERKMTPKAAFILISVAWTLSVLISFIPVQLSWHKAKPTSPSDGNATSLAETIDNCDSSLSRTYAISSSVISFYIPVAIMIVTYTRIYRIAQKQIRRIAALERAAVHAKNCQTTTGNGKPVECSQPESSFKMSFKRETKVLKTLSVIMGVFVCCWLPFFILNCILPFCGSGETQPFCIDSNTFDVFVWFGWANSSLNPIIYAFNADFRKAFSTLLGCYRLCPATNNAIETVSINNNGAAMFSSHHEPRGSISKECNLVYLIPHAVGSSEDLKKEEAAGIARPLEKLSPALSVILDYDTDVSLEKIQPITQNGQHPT

Which Ki (DRD1) does the source give for `CCCCCCOc1nsnc1C1=CCCNC1` [N-desmethylxanomeline] here?
Its Ki is 2.34 µM.

And the Ki (5-HT4)?
The Ki was 3.72 µM.

And the Emax (CHRM1)?
Its Emax is 95.9%.

And the pKi (M1)?
The pKi was 6.66.

With `CCCCCCOc1nsnc1C1=CCCN(C)C1` [Xanomeline] as the compound, how does the pKi (HTR1A) read?
The pKi was 5.23.

What about the pKi (β3) of the same compound?
Its pKi is under 5.00.

And the pKi (DAT)?
The pKi was under 5.00.

What about the pKi (5-HT6) of the same compound?
The pKi was 5.40.

What about the pKi (5-HT1E) of the same compound?
The pKi was under 5.00.

What about the pKi (HRH4) of the same compound?
Its pKi is under 5.00.
